Assay results from ChEMBL document CHEMBL5303761, “Data for DCP probe BI-3231” (2023).

Assays:
[1] = target: Histamine H3 receptor (Homo sapiens) (UniProt Q9Y5N1); conditions: Compound concentration 10.0 uM
[2] = target: Sodium-dependent noradrenaline transporter (Homo sapiens) (UniProt P23975); experiment: NEUP/H Eurofins SafetyScreen44 (BI); conditions: Compound concentration 10.0 uM
[3] = target: Sodium-dependent serotonin transporter (Homo sapiens) (UniProt P31645); conditions: Compound concentration 10.0 uM
[4] = target: Alpha-2B adrenergic receptor (Homo sapiens) (UniProt P18089); conditions: Compound concentration 10.0 uM
[5] = target: Beta-3 adrenergic receptor (Homo sapiens) (UniProt P13945); conditions: Compound concentration 10.0 uM
[6] = target: Mu-type opioid receptor (Homo sapiens) (UniProt P35372); conditions: Compound concentration 10.0 uM
[7] = target: Tyrosine-protein kinase Lck (Homo sapiens) (UniProt P06239); experiment: LCK_CE Eurofins SafetyScreen44 (BI); conditions: Compound concentration 10.0 uM
[8] = target: T1, Alpha-2A adrenergic receptor (Homo sapiens) (UniProt P08913); conditions: Compound concentration 10.0 uM
T1 sequence (whole entry): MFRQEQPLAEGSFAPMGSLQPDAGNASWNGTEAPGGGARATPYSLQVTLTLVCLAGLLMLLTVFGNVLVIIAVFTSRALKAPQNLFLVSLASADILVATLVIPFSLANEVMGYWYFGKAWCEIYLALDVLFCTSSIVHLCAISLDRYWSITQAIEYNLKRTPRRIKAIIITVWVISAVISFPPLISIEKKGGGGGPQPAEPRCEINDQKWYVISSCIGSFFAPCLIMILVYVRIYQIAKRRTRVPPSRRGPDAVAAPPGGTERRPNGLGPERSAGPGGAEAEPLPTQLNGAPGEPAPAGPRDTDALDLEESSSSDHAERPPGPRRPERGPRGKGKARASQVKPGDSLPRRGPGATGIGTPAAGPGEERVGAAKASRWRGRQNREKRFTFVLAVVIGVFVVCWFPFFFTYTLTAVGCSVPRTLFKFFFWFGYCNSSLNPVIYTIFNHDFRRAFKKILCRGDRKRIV

[9] = target: Muscarinic acetylcholine receptor M5 (Homo sapiens) (UniProt P08912); conditions: Compound concentration 10.0 uM
[10] = target: 5-hydroxytryptamine receptor 2B (Homo sapiens) (UniProt P41595); experiment: 5HT2B/H AG Eurofins SafetyScreen44 (BI); conditions: filed as agonist, Compound concentration 10.0 uM
[11] = target: Cannabinoid receptor 2 (Homo sapiens) (UniProt P34972); experiment: CB2/PERIPH/H Eurofins SafetyScreen44 (BI); conditions: Compound concentration 10.0 uM
[12] = target: Cannabinoid receptor 1 (Homo sapiens) (UniProt P21554); experiment: CB1(HU)_AGON Eurofins SafetyScreen44 (BI); conditions: filed as agonist; Compound concentration 10.0 uM
[13] = target: Sodium-dependent dopamine transporter (Homo sapiens) (UniProt Q01959); experiment: DATRANS/HUM Eurofins SafetyScreen44 (BI); conditions: Compound concentration 10.0 uM
[14] = target: 5-hydroxytryptamine receptor 2B (Homo sapiens) (UniProt P41595); conditions: Compound concentration 10.0 uM
[15] = target: D(3) dopamine receptor (Homo sapiens) (UniProt P35462); conditions: Compound concentration 10.0 uM
[16] = target: Delta-type opioid receptor (Homo sapiens) (UniProt P41143); conditions: Compound concentration 10.0 uM
[17] = target: Glucocorticoid receptor (Homo sapiens) (UniProt P04150); experiment: GCORTICOID/H Eurofins SafetyScreen44 (BI); conditions: Compound concentration 10.0 uM
[18] = target: Delta-type opioid receptor (Homo sapiens) (UniProt P41143); experiment: DELTA2/H Eurofins SafetyScreen44 (BI); conditions: Compound concentration 10.0 uM
[19] = target: Alpha-2C adrenergic receptor (Homo sapiens) (UniProt P18825); conditions: Compound concentration 10.0 uM
[20] = target: Sodium-dependent serotonin transporter (Homo sapiens) (UniProt P31645); experiment: SLC6A4/H Eurofins SafetyScreen44 (BI); conditions: filed as antagonist, Compound concentration 10.0 uM
[21] = target: T1, Alpha-2A adrenergic receptor (Homo sapiens); experiment: ALPHA2A/HU Eurofins SafetyScreen44 (BI); conditions: Compound concentration 10.0 uM
[22] = target: Histamine H2 receptor (Homo sapiens) (UniProt P25021); conditions: Compound concentration 10.0 uM
[23] = target: cGMP-inhibited 3',5'-cyclic phosphodiesterase 3A (Homo sapiens) (UniProt Q14432); experiment: PDE3A Eurofins SafetyScreen44 (BI); conditions: Compound concentration 10.0 uM
[24] = target: Androgen receptor (Homo sapiens) (UniProt P10275); experiment: ANDROGEN/H Eurofins SafetyScreen44 (BI); conditions: Compound concentration 10.0 uM
[25] = target: T2, 5-hydroxytryptamine receptor 3A (Homo sapiens) (UniProt P46098); experiment: 5HT3/H Eurofins SafetyScreen44 (BI); conditions: Compound concentration 10.0 uM
T2 sequence (whole entry): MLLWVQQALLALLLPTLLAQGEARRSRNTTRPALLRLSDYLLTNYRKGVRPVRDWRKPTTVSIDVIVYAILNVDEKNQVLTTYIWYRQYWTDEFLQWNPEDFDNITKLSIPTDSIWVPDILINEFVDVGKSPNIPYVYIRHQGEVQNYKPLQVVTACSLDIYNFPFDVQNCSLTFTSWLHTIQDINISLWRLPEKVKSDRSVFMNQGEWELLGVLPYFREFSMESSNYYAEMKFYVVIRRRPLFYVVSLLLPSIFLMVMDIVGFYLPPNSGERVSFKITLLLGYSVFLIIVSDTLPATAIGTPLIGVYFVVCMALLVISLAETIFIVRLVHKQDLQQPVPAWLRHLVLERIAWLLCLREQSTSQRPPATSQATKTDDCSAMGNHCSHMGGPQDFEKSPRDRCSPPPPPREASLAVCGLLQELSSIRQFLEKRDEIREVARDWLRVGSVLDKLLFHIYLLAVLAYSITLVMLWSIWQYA

[26] = target: Muscarinic acetylcholine receptor M3 (Homo sapiens) (UniProt P20309); experiment: M3/H Eurofins SafetyScreen44 (BI); conditions: Compound concentration 10.0 uM
[27] = target: Vasopressin V1a receptor (Homo sapiens) (UniProt P37288); experiment: V1A/HUM Eurofins SafetyScreen44 (BI); conditions: Compound concentration 10.0 uM
[28] = target: Beta-1 adrenergic receptor (Homo sapiens) (UniProt P08588); experiment: BETA1/HUM Eurofins SafetyScreen44 (BI); conditions: Compound concentration 10.0 uM
[29] = target: Estradiol 17-beta-dehydrogenase 11 (Homo sapiens, UniProt Q8NBQ5); experiment: Enzymatic assay (hHSD17B11); format: functional

Chain of 5-hydroxytryptamine receptor 2B (Homo sapiens) (P41595 whole entry): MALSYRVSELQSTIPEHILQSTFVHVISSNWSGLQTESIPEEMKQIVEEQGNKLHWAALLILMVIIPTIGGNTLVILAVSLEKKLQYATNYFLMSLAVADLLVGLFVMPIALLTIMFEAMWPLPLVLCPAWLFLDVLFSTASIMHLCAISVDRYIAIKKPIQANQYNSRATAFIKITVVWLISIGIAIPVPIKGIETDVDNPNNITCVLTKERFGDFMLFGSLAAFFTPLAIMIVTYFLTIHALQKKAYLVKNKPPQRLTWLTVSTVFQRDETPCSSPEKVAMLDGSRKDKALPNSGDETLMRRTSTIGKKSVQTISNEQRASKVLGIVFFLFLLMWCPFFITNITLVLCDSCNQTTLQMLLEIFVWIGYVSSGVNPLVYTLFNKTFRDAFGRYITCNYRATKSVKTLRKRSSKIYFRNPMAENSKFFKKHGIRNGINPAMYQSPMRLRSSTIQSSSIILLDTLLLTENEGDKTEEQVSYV
Chain of Mu-type opioid receptor (Homo sapiens) (P35372 whole entry): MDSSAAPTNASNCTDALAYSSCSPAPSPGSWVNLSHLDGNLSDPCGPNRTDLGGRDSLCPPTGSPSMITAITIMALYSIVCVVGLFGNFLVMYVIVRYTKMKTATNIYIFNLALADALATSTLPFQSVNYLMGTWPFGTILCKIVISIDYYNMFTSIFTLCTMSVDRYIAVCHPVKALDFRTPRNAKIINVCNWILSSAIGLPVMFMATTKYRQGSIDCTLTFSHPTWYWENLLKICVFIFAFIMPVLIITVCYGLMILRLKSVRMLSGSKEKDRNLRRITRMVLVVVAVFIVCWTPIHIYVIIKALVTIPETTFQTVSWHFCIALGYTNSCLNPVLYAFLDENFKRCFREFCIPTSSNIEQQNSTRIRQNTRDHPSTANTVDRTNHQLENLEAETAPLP
Chain of Delta-type opioid receptor (Homo sapiens) (P41143 whole entry): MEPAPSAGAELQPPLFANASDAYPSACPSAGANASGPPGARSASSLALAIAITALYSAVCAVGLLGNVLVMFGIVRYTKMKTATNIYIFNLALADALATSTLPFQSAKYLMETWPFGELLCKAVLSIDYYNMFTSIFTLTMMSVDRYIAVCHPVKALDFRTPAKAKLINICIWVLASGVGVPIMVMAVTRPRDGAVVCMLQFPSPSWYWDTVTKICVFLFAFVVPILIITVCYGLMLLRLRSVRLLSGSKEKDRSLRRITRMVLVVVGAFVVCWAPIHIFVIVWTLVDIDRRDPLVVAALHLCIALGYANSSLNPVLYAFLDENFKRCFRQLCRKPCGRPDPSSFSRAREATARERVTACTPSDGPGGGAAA
Chain of Alpha-2C adrenergic receptor (Homo sapiens) (P18825 whole entry): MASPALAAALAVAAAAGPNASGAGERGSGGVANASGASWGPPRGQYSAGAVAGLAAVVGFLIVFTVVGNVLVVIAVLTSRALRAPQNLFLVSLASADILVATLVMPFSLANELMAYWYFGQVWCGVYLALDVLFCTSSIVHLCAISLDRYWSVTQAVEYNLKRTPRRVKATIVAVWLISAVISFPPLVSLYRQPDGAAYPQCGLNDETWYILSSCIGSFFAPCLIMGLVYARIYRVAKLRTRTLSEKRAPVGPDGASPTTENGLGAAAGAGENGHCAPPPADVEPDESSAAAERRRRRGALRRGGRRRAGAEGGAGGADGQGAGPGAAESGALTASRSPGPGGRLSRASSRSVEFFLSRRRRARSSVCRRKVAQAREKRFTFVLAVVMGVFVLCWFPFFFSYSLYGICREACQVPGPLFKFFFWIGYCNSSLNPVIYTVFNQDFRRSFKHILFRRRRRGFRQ
Chain of Beta-3 adrenergic receptor (Homo sapiens) (P13945 whole entry, looked up): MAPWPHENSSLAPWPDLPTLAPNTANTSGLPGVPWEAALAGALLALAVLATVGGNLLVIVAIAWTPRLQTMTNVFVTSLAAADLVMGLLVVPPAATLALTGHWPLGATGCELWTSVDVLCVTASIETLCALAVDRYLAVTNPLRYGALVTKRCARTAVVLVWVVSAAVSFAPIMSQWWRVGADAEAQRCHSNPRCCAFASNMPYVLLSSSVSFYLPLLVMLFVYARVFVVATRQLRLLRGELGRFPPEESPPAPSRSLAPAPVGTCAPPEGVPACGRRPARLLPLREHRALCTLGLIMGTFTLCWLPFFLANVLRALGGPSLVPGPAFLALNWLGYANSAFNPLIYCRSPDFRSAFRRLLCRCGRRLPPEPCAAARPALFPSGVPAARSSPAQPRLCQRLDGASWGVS
Chain of Alpha-2B adrenergic receptor (Homo sapiens) (P18089 whole entry): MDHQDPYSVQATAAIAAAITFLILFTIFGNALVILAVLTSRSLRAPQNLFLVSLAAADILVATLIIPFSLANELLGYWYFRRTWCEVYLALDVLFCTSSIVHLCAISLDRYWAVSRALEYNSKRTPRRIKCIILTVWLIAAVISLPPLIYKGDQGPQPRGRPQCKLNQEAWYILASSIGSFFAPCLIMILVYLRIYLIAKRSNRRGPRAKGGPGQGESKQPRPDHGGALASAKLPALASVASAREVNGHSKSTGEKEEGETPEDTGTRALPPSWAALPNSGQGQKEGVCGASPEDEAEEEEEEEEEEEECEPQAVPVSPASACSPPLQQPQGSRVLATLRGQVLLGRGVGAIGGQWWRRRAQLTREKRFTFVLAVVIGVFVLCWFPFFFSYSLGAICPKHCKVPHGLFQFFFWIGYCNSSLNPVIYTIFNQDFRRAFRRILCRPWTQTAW
Chain of Histamine H2 receptor (Homo sapiens) (P25021 whole entry): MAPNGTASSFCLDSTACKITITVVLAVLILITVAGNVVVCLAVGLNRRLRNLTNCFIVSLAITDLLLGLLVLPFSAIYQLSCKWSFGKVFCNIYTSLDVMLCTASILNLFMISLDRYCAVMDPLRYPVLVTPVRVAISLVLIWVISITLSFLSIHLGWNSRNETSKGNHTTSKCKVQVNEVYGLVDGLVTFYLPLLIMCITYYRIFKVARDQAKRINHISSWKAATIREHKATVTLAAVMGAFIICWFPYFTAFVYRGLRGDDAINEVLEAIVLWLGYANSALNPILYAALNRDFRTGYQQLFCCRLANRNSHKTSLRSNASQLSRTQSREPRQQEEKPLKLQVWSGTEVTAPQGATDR
Chain of Muscarinic acetylcholine receptor M5 (Homo sapiens) (P08912 whole entry): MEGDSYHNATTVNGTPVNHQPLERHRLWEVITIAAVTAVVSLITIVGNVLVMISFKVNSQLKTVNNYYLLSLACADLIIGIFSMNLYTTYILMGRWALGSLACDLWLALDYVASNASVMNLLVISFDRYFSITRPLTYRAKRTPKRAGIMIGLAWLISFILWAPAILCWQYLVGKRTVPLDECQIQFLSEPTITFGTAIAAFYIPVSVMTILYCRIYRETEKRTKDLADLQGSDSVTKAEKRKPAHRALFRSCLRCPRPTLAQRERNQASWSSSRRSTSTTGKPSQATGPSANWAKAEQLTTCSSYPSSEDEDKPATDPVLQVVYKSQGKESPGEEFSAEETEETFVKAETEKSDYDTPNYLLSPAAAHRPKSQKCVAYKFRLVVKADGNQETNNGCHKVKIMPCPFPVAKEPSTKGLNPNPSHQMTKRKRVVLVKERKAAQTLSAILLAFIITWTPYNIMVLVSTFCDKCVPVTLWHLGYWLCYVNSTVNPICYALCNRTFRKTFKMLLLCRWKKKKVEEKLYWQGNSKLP
Chain of D(3) dopamine receptor (Homo sapiens) (P35462 whole entry): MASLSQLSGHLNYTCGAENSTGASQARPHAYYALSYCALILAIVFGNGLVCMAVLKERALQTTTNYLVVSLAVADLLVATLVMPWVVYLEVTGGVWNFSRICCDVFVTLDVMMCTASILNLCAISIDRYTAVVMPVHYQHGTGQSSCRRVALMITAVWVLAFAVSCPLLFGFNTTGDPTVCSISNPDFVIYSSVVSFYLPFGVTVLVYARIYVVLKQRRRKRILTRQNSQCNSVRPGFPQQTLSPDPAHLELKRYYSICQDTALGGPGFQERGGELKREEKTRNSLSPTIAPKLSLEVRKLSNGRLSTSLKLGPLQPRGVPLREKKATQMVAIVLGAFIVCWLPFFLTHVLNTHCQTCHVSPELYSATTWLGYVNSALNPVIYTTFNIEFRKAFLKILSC
Chain of Histamine H3 receptor (Homo sapiens) (Q9Y5N1 whole entry): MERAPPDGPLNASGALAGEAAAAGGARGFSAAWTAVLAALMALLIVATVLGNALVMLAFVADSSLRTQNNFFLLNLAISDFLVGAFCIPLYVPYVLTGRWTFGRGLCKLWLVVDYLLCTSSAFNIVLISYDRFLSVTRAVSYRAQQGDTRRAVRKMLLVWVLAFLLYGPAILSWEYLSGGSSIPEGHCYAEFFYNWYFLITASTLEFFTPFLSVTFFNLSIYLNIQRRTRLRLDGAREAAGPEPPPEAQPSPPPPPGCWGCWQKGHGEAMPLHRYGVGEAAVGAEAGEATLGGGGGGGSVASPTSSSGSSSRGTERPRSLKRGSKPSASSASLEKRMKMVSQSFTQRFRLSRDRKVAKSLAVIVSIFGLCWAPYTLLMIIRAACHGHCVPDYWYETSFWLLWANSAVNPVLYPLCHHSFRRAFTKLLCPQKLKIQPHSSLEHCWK
Chain of Sodium-dependent serotonin transporter (Homo sapiens) (P31645 whole entry, looked up): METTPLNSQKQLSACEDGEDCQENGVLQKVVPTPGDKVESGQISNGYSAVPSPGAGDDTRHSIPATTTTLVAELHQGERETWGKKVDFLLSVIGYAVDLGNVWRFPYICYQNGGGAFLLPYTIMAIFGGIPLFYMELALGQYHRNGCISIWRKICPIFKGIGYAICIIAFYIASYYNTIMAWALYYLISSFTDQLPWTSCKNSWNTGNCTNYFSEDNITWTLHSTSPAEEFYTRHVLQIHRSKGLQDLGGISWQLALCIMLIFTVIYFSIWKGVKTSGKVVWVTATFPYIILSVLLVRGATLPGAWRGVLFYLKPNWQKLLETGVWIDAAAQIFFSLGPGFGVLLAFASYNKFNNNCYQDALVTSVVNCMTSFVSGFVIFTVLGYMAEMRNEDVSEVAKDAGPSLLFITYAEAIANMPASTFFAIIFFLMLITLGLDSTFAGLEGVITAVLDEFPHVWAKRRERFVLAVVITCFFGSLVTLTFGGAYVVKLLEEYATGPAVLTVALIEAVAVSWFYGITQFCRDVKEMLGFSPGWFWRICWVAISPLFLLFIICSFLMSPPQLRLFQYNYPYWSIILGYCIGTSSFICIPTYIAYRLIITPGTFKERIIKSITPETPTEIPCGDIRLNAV

Work on `CCn1c(=O)c(C)cn(Cc2nnc(-c3ccc(F)c(O)c3F)s2)c1=O` yielded an inhibition [1] of 0.98%, a residual activity [2] of 88% and an inhibition [3] of -3.65%. The inhibition [4] was 5.03%, the inhibition [5] was -4.71% and the inhibition [6] was -0.02%. For the same compound, the residual activity [7] was 91%, the inhibition [8] was 4.94% and the inhibition [9] was -6.35%. It also gave a residual activity [10] of 83%, a residual activity [11] of 98% and a residual activity [12] of 101%. For the same compound, the residual activity [13] was 82%, the inhibition [14] was -8.82% and the inhibition [15] was 7.03%. For the same compound, the inhibition [16] was 9.87%, the residual activity [17] was 96% and the residual activity [18] was 95%. It also gave an inhibition [19] of 1.31%, a residual activity [20] of 106% and a residual activity [21] of 113%. It also gave an inhibition [22] of -3.03%, a residual activity [23] of 94% and a residual activity [24] of 102%. It also gave a residual activity [25] of 106%, a residual activity [26] of 96% and a residual activity [27] of 100%. For the same compound, the residual activity [28] was 95%.

With `CCn1c(=O)c(C)cn(Cc2nnc(-c3ccc(F)c(OC)c3F)s2)c1=O` the inhibition [1] was 11%, the residual activity [2] was 92% and the inhibition [3] was -7.45%. For the same compound, the inhibition [4] was 2.49%, the inhibition [5] was 6.74% and the inhibition [6] was 12.9%. For the same compound, the residual activity [7] was 110%, the inhibition [8] was 16.4% and the inhibition [9] was 0.59%. For the same compound, the residual activity [10] was 45%, the residual activity [11] was 110% and the residual activity [12] was 104%. For the same compound, the residual activity [13] was 86%, the inhibition [14] was 28.5% and the inhibition [15] was -2.24%. It also gave an inhibition [16] of -0.06%, a residual activity [17] of 88% and a residual activity [18] of 103%. For the same compound, the inhibition [19] was 2.05%, the residual activity [20] was 97% and the residual activity [21] was 87%. For the same compound, the inhibition [22] was -1.31%, the residual activity [23] was 93% and the residual activity [24] was 103%. It also gave a residual activity [25] of 98%, a residual activity [26] of 107% and a residual activity [27] of 103%. The residual activity [28] was 94% and the IC50 [29] was > 10 µM (not active).
